Data on ten compounds can be found in PubChem BioAssay (NCI).

Where “and” joins values, the source holds several entries; their conditions need not be identical. Equal values may be shown once.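 Tested at 5 concentrations; 48 h exposure; 96-well plates; endpoints linearly interpolated, else capped at highest concentration. Here, GI50 denotes the concentration required for 50% inhibition of growth. Definition used: TGI = concentration required for complete inhibition of growth.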

Some test systems named below: 786-0 renal; BT-549 breast; HT29 colon; OVCAR-3 ovarian; OVCAR-5 ovarian; SK-OV-3 ovarian; SNB-19 CNS; T-47D breast; UACC-62 melanoma.
Assay in all cases: NCI anticancer screen, dose series, 48 h

With `CCOC(=O)c1c2c(c(O)c3ccccc3c(O)n(Cc3ccc(OC)cc3)c1C)C(=O)C=CC2=O`, the GI50 was above 100 µM in the test on 786-0 renal; above 100 µM in the test with BT-549 breast; above 100 µM with HT29 colon; 68.9 µM with OVCAR-3 ovarian; above 100 µM in the test on OVCAR-5 ovarian; above 100 µM with SK-OV-3 ovarian. In addition, the GI50 in the test with SNB-19 CNS, in the test with T-47D breast and with UACC-62 melanoma was above 100 µM throughout. Besides, the TGI in the test with 786-0 renal, in the test with BT-549 breast, in the test on HT29 colon, in the test on OVCAR-3 ovarian, in the test with OVCAR-5 ovarian and with SK-OV-3 ovarian was above 100 µM each time. Also, the TGI in the test with SNB-19 CNS, with T-47D breast and in the test with UACC-62 melanoma was above 100 µM each time.

In the case of `COc1cc(NS(C)(=O)=O)ccc1Nc1c2ccc([N+](=O)[O-])cc2nc2c(C)cccc12`, the GI50 in the test with 786-0 renal was 0.362 µM; with BT-549 breast, 1.45 µM; with HT29 colon, 1.41 µM; in the test with OVCAR-3 ovarian, 1.17 µM; with OVCAR-5 ovarian, 2.87 µM; in the test with SK-OV-3 ovarian it was 0.891 µM. In addition, the results for the GI50 in the test with SNB-19 CNS, with T-47D breast and in the test with UACC-62 melanoma were 0.213 µM, 0.117 µM and 0.377 µM, respectively. In addition, the TGI with 786-0 renal came to 6.04 µM; in the test on BT-549 breast, 7.45 µM; in the test on HT29 colon it was 7.1 µM; with OVCAR-3 ovarian it was 9.16 µM; with OVCAR-5 ovarian, 14.4 µM; in the test with SK-OV-3 ovarian, 11.5 µM. The TGI in the test on SNB-19 CNS came to 14.1 µM; in the test with T-47D breast, 7.68 µM; in the test on UACC-62 melanoma, 11.1 µM.

As to `O=[N+]([O-])c1ccc(S(=O)(=O)Cc2ccccc2)c([N+](=O)[O-])c1`, the TGI worked out at 2.98 µM with 786-0 renal; 5.12 µM in the test with BT-549 breast; 5.55 µM in the test with HT29 colon; 2.57 µM with OVCAR-3 ovarian; 27.3 µM in the test on OVCAR-5 ovarian; 13.2 µM in the test on SK-OV-3 ovarian. The TGI was 39.6 µM in the test with SNB-19 CNS, 4.48 µM in the test with T-47D breast and 5.22 µM with UACC-62 melanoma.

`O=C(O)CCNc1ccccc1C(=O)O`: the TGI in the test with 786-0 renal, in the test on BT-549 breast, with HT29 colon, with OVCAR-3 ovarian, in the test on OVCAR-5 ovarian and with SK-OV-3 ovarian was above 100 µM in each case. For the same compound, the TGI in the test with SNB-19 CNS, in the test on T-47D breast and in the test with UACC-62 melanoma was above 100 µM throughout.

With `O=C(O)C/C(=C\c1ccco1)C(=O)O`, the TGI in the test with 786-0 renal, in the test with BT-549 breast, with HT29 colon, in the test with OVCAR-3 ovarian, in the test with OVCAR-5 ovarian and with SK-OV-3 ovarian was above 100 µM each time. Besides, the TGI with SNB-19 CNS, in the test on T-47D breast and with UACC-62 melanoma was above 100 µM each time.

As to `COc1cccc2c1C(=O)C=CC2=O`, the TGI came to 23.9 µM in the test on 786-0 renal; 29.1 µM in the test with BT-549 breast; 26.9 µM in the test with HT29 colon; 3.51 µM in the test with OVCAR-3 ovarian; 33 µM in the test on OVCAR-5 ovarian; 36.2 µM in the test with SK-OV-3 ovarian. Besides, the TGI in the test with SNB-19 CNS turned out to be 29.3 µM; in the test on T-47D breast, 5.04 µM; in the test on UACC-62 melanoma it was 25.3 µM.

`C[C@@H]1COCCN1c1cc(C2([S@](C)(=N)=O)CC2)nc(-c2ccnc3[nH]ccc23)n1`: the GI50 is 1.39 µM and 2.03 µM with 786-0 renal; 1.83 µM and 2.92 µM in the test on BT-549 breast; 4.27 µM and 4.99 µM in the test with HT29 colon; 4.16 µM and 5.15 µM in the test with OVCAR-3 ovarian; 5.03 µM and 6.98 µM with OVCAR-5 ovarian; 2.7 µM and 4.51 µM in the test on SK-OV-3 ovarian. Further, the GI50 in the test on SNB-19 CNS is 3.96 µM and 6.33 µM; in the test with T-47D breast, 3.96 µM and 7.78 µM; in the test on UACC-62 melanoma it was 2.34 µM and 1.76 µM. The TGI in the test on 786-0 renal was 16.1 µM and > 10 µM; in the test with BT-549 breast it was 27.7 µM and > 10 µM; in the test on HT29 colon, above 100 µM; in the test with OVCAR-3 ovarian, above 80.6 µM; in the test on OVCAR-5 ovarian it was 99.8 µM and > 10 µM; in the test with SK-OV-3 ovarian, 27.9 µM and > 10 µM. Moreover, the TGI is above 100 µM in the test with SNB-19 CNS; 35.8 µM and > 10 µM in the test on T-47D breast; 16.6 µM and > 10 µM in the test with UACC-62 melanoma.

Consider `COc1ccc(OC)c(/C=N/NC(=O)Cc2csc3nc(-c4ccc(Br)cc4)cn23)c1`, for which the GI50 is 26.3 µM in the test on 786-0 renal; 12.9 µM in the test with BT-549 breast; 16.4 µM in the test with HT29 colon; 15.9 µM in the test with OVCAR-3 ovarian; 50.2 µM in the test with OVCAR-5 ovarian; 57.7 µM in the test on SK-OV-3 ovarian. Besides, the GI50 is 31.4 µM in the test on SNB-19 CNS, 41.2 µM in the test with T-47D breast and 12.1 µM in the test with UACC-62 melanoma. In addition, the TGI with 786-0 renal is above 100 µM; in the test on BT-549 breast it was 33.6 µM; in the test on HT29 colon, above 100 µM; in the test with OVCAR-3 ovarian, 59 µM; with OVCAR-5 ovarian, above 100 µM; in the test with SK-OV-3 ovarian, above 100 µM. The TGI in the test with SNB-19 CNS was above 100 µM; in the test with T-47D breast, above 100 µM; with UACC-62 melanoma it was 27.7 µM.

Take `Nc1ccc2c(c1)C(=O)C(=O)c1c-2nc2ccccn12`: the GI50 in the test with 786-0 renal is 2.24 µM; in the test with BT-549 breast, 1.49 µM; in the test on HT29 colon, 3.97 µM; with OVCAR-3 ovarian, 1.26 µM; with OVCAR-5 ovarian it was 1.92 µM; in the test with SK-OV-3 ovarian, 2.64 µM. The results for the GI50 in the test with SNB-19 CNS, in the test with T-47D breast and in the test with UACC-62 melanoma were 1.64 µM, 1.76 µM and 0.266 µM, respectively. Also, the TGI amounted to 4.86 µM in the test with 786-0 renal; 2.82 µM with BT-549 breast; 34.9 µM in the test on HT29 colon; 3.07 µM with OVCAR-3 ovarian; 3.57 µM with OVCAR-5 ovarian; 7.62 µM with SK-OV-3 ovarian. The TGI with SNB-19 CNS came out at 3.23 µM; in the test on T-47D breast, 4.13 µM; with UACC-62 melanoma it was 0.782 µM.

`COC(=O)[C@@]12C(=O)C=CC(=O)[C@@H]1C1C(=CC2COC(C)=O)O[C@@H]2OC3(CCCCC3)O[C@H]12` (stereo not given in full): the TGI is 18.7 µM in the test with 786-0 renal; 26 µM with BT-549 breast; 19.3 µM with HT29 colon; 17.1 µM with OVCAR-3 ovarian; 30.7 µM in the test on OVCAR-5 ovarian; 30 µM in the test with SK-OV-3 ovarian. Also, the values for the TGI in the test with SNB-19 CNS, in the test with T-47D breast and with UACC-62 melanoma were 29.8 µM, 13.2 µM and 25.9 µM, respectively.
